What all share (type): cell-based, human
The subject of assay [1] is HS 578T. Description: NCI single-dose GI%, breast. The following applies: 10.0 μM in one dose.
The test system of assay [2] is MDA-MB-435. Description: NCI single-dose GI%, melanoma. As to conditions: MDA-MB-435, melanoma; 10.0 μM in one dose.
The subject of assay [3] is NCI-H226. Nature of the assay: NCI single-dose GI%, NSC lung. The following applies: 10.0 μM in one dose.
Assay [4] deals with SN12C. Nature of the assay: NCI single-dose GI%, renal. As to conditions: 10.0 μM in one dose.
The test system of assay [5] is TK-10. Nature of the assay: NCI single-dose GI%, renal. As to conditions: TK-10, renal; 10.0 μM in one dose.

`Cc1ccc(C2=NN(C(=O)c3ccc(S(C)(=O)=O)cc3)C(c3ccc(C)cc3)C2)cc1` (centres unmarked) [Compound 18g, (3,5-Bis(4-tolyl)-4,5-dihydro-1H-pyrazol-1-yl)(4-(methylsulfonyl)phenyl)methanone]: the GI% was found to be 15% in assay [1] and 76% in assay [2].

Take `CS(=O)(=O)c1ccc(C(=O)N2N=C(c3ccccc3)CC2c2ccccc2O)cc1` (centres unmarked) [Compound 18h, (5-(2-Hydroxyphenyl)-3-phenyl-4,5-dihydro-1H-pyrazol-1-yl)(4-(methylsulfonyl)phenyl)methanone]: the GI% in assay [3] was 15%; in assay [4], 17%; in assay [5], 25%.

Values taken from publication PMC11240878, “Synthesis, enzyme inhibition assay, and molecular modeling study of novel pyrazolines linked to 4-methylsulfonylphenyl scaffold: antitumor activity and cell cycle analysis” (RSC Advances, 2024).
